Measurements: the supplement of paper PMC8671470

Assays:
Assay in all cases: cell viability (% survival relative to DMSO control, bortezomib = 0%); higher = less cytotoxic
Details in all cases: 72 h
[1] = tested on: KCL-22
Method in brief: (§1)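 Seeding density for each of the 10 AML and 5 CML cell lines was titrated to the linear growth range. Cells went into 384-well plates pre-printed in duplicate with compounds at 1, 10, 100, 1000 or 10000 nM and were held for 72 h at 37 °C with 5% CO2. CellTiter-Glo luminescence then provided the readout. Percent survival is expressed relative to vehicle at 100% and a 10 µM positive control at 0%, averaged over duplicates.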

[2] = tested on: HL-60
Method in brief: as §1

[3] = tested on: K-562
Method in brief: as §1

[4] = tested on: LAMA-84
Method in brief: as §1

Row | SMILES | cell viability ([1]; 1 nM) [%] | cell viability ([1]; 10 nM) [%] | cell viability ([1]; 100 nM) [%] | cell viability ([1]; 1000 nM) [%] | cell viability ([1]; 10000 nM) [%] | cell viability ([2]; 1 nM) [%] | cell viability ([2]; 10 nM) [%] | cell viability ([2]; 100 nM) [%] | cell viability ([2]; 1000 nM) [%] | cell viability ([2]; 10000 nM) [%] | cell viability ([3]; 1 nM) [%] | cell viability ([3]; 10 nM) [%] | cell viability ([3]; 100 nM) [%] | cell viability ([3]; 1000 nM) [%] | cell viability ([3]; 10000 nM) [%] | cell viability ([4]; 1 nM) [%] | cell viability ([4]; 10 nM) [%] | cell viability ([4]; 100 nM) [%] | cell viability ([4]; 1000 nM) [%] | cell viability ([4]; 10000 nM) [%]
1 | Clc1ccc2c(c1Cl)CNCC2 | 101 | 120 | 92.2 | 108 | 91.5 | 101 | 194 | 90.1 | 103 | 95.8 | 103 | 97.7 | 95.4 | 107 | 88.7 | 98.6 | 105 | 93.7 | 110 | 94.4
2 | O=C(O)C(S)=Cc1c[nH]c2ccc(F)cc12 | 111 | 94.6 | 102 | 112 | 101 | 98.3 | 103 | 111 | 66.7 | 90.7 | 91 | 95.7 | 90.1 | 116 | 85.9 | 96.9 | 98.2 | 92.6 | 102 | 102
3 | CC(C)Cc1sc(N)nc1-c1ccc(P(=O)(O)O)o1 | 95.8 | 108 | 108 | 112 | 101 | 56.2 | 90.1 | 72.8 | 105 | 67 | 104 | 118 | 109 | 103 | 92.5 | 111 | 97.4 | 102 | 94.4 | 80.3
4 | Cl.OC[C@H]1NC[C@@H](O)[C@@H](O)[C@@H]1O [1-Deoxymannojirimycin hydrochloride] | 95.9 | 86.8 | 96.4 | 111 | 105 | 98.5 | 79.5 | 102 | 124 | 80.5 | 93.7 | 70.4 | 104 | 103 | 91.6 | 99.5 | 93.4 | 102 | 94 | 95.6
5 | CN(C)c1nc(O)c2[nH]cnc2n1 [2-Dimethylamino-6-hydroxypurine] | 98.2 | 81.3 | 106 | 99 | 87.1 | 103 | 81.4 | 79.9 | 110 | 90.1 | 108 | 89.2 | 92.2 | 117 | 92 | 101 | 104 | 97.7 | 99.3 | 103
6 | O=C(O)c1cc2sccc2[nH]1 [4H-thieno[3,2-b]pyrrole-5-carboxylic acid] | 90.3 | 104 | 84.7 | 101 | 99.8 | 117 | 104 | 90.6 | 69.1 | 95.3 | 86.6 | 106 | 101 | 101 | 105 | 101 | 99.3 | 110 | 95.4 | 105
7 | [N-]=[N+]=CC(=O)CC[C@H](N)C(=O)O [6-Diazo-5-oxo-L-norleucine] | 94.7 | 104 | 109 | 109 | 101 | 64.7 | 83.2 | 135 | 97.5 | 106 | 70.8 | 99.6 | 99.5 | 104 | 92.5 | 98.5 | 98.8 | 101 | 97.7 | 100
8 | Sc1ncnc2nc[nH]c12 [6-mercaptopurine] | 92.6 | 89.7 | 105 | 52 | 8.81 | 144 | 85.8 | 118 | 54.7 | 15.2 | 110 | 88.9 | 102 | 39.9 | 8.69 | 102 | 86.6 | 87.9 | 55.3 | 12.6
9 | O=C(O)CC[C@H](NC(=O)c1ccc([N+](=O)[O-])cc1)C(=O)O [(S)-2-(4-Nitrobenzamido)pentanedioic acid] | 93.4 | 98.1 | 107 | 95.5 | 90.8 | 78 | 107 | 113 | 83.6 | 93.7 | 76.6 | 91.8 | 84.6 | 102 | 110 | 98.8 | 77.2 | 99.6 | 103 | 100
10 | O=C1Nc2ccccc2/C1=C\NCCc1ccc(O)c(O)c1 [AC1NZZMF] | 79.2 | 90.9 | 102 | 106 | 94.3 | 76.8 | 102 | 82.5 | 96.8 | 86.8 | 90.1 | 112 | 99.7 | 122 | 96.6 | 107 | 108 | 102 | 101 | 107
11 | Cc1ccc(S(=O)(=O)NC2c3ccccc3Oc3ccccc32)cc1 [AH-7614] | 75.6 | 84 | 128 | 101 | 80.8 | 103 | 112 | 87.8 | 94.5 | 86.2 | 92 | 95.9 | 89.9 | 98.1 | 76.4 | 93.7 | 98.8 | 101 | 95.5 | 105
12 | C[C@]12CC[C@H](O)CC1=CC[C@@H]1[C@@H]2CC[C@]2(C)C(c3cccnc3)=CC[C@@H]12 [Abiraterone] | 99.6 | 92 | 111 | 112 | 87.2 | 142 | 97.7 | 136 | 80.3 | 124 | 109 | 113 | 107 | 112 | 89.4 | 105 | 106 | 94.1 | 102 | 108
13 | O=C(COc1ccc(C(=O)c2ccccc2)cc1)NC1CCN(Cc2ccccc2)CC1 [AdipoRon] | 102 | 110 | 102 | 108 | 76.3 | 102 | 118 | 81.9 | 111 | 70 | 90.2 | 105 | 79.7 | 104 | 58.3 | 96.9 | 102 | 93.8 | 96.7 | 61.1
14 | CCOC(=O)[C@H]1O[C@@H]1C(=O)N[C@@H](CC(C)C)C(=O)NCCC(C)C [Aloxistatin] | 98.4 | 89.2 | 102 | 99.5 | 87.3 | 103 | 120 | 108 | 114 | 74 | 90.9 | 112 | 85.4 | 105 | 99.1 | 93.7 | 101 | 101 | 101 | 98.6
15 | N[C@](CCCCB(O)O)(CCN1CCCCC1)C(=O)O [Arginase inhibitor 1] | 97 | 84.6 | 104 | 102 | 90.9 | 131 | 104 | 73.9 | 106 | 117 | 120 | 102 | 93.1 | 90.6 | 88.4 | 99.9 | 102 | 96.1 | 102 | 88.9
16 | Cc1noc2c1-c1ccccc1C(c1ccc(Cl)cc1)=N[C@H]2CC(N)=O [CPI-0610] | 123 | 94.6 | 91.3 | 49 | 27.7 | 110 | 102 | 69.4 | 33 | 16.1 | 87.7 | 88.2 | 80.7 | 32.1 | 34.5 | 107 | 92.3 | 98.4 | 67.2 | 33.6
17 | Nc1ccn([C@@H]2O[C@H](CO)[C@@H](O)[C@@H]2O)c(=O)n1 [Cytarabine] | 108 | 91.6 | 26.6 | 14.2 | 9.51 | 100 | 95.1 | 82.3 | 28 | 0.475 | 104 | 70 | 57.6 | 32.4 | 24.4 | 93 | 80.3 | 38.5 | 12.9 | 5
18 | CCOc1ccc(Cc2cc([C@@H]3O[C@H](CO)[C@@H](O)[C@H](O)[C@H]3O)ccc2Cl)cc1 [Dapagliflozin] | 116 | 109 | 54.2 | 96.7 | 107 | 101 | 86.8 | 81.3 | 94.4 | 104 | 98.9 | 108 | 81.4 | 101 | 94.6 | 98.1 | 111 | 89.7 | 97.7 | 90.5
19 | CCN(CC)CCN(Cc1ccc(-c2ccc(C(F)(F)F)cc2)cc1)C(=O)Cn1c(SCc2ccc(F)cc2)nc(=O)c2c1CCC2 [Darapladib] | 112 | 113 | 114 | 86.3 | -0.547 | 101 | 95.7 | 101 | 81.9 | -0.402 | 99.1 | 122 | 81.6 | 73.6 | -0.273 | 101 | 83.5 | 99.7 | 80.6 | -0.44
20 | O=C(O)C(Cl)Cl [Dichloroacetate] | 101 | 97.7 | 93.4 | 92.1 | 102 | 96.5 | 115 | 104 | 109 | 120 | 96.5 | 108 | 93 | 96.2 | 105 | 101 | 100 | 98 | 101 | 99.3
21 | O=C1Oc2ccccc2C(=O)C1CC1C(=O)Oc2ccccc2C1=O (stereo not given) [Dicumarol] | 96.6 | 97.3 | 107 | 107 | 102 | 98.3 | 102 | 101 | 104 | 112 | 95.1 | 106 | 97.2 | 100 | 95.8 | 97.3 | 107 | 95.5 | 103 | 105
22 | CC12CCC(O)CC1CCC1C2CCC2(C)C(C3=CC(=O)OC3)CCC12O (stereo not given) [Digitoxigenin] | 94.5 | 102 | 98.9 | 3.66 | -0.896 | 101 | 105 | 103 | 1.05 | -1.85 | 94.8 | 106 | 77.1 | 3.12 | -1.21 | 109 | 105 | 84.6 | 6.05 | 0.855
23 | C[C@H]1O[C@@H](O[C@H]2[C@@H](O)C[C@H](O[C@H]3[C@@H](O)C[C@H](O[C@H]4CC[C@@]5(C)[C@H](CC[C@@H]6[C@@H]5C[C@@H](O)[C@]5(C)[C@@H](C7=CC(=O)OC7)CC[C@]65O)C4)O[C@@H]3C)O[C@@H]2C)C[C@H](O)[C@@H]1O [Digoxin] | 99.1 | 95.3 | 25 | 0.788 | 0.361 | 104 | 107 | -0.615 | -0.309 | -0.00704 | 95.2 | 107 | 41.8 | -0.121 | 0.146 | 92.3 | 115 | 20.6 | 2.17 | 2.06
24 | O=c1c2ccccc2[se]n1-c1ccccc1 [Ebselen] | 103 | 97.8 | 104 | 96.5 | 93.1 | 107 | 94.8 | 102 | 95.6 | 77.6 | 96.6 | 102 | 91 | 90.5 | 72.3 | 93.3 | 97.1 | 95.5 | 92.1 | 101
25 | Clc1ccc(COC(Cn2ccnc2)c2ccc(Cl)cc2Cl)cc1 (stereo not given) [Econazole] | 116 | 91.2 | 96.9 | 84.2 | 54.8 | 120 | 80.3 | 109 | 81.2 | 41.5 | 97.4 | 89.8 | 93.1 | 69 | 38.1 | 103 | 95.5 | 91.8 | 92 | 58.1
26 | C#Cc1cnc(O)nc1O [Eniluracil] | 109 | 115 | 113 | 104 | 113 | 112 | 134 | 123 | 95.1 | 111 | 101 | 113 | 113 | 102 | 94.5 | 100 | 102 | 107 | 109 | 104
